Experiments:
mSult2a3 = test: FFA sulfoconjugation assay (N6-MF-A formation with adenosine as scavenger); assay type: biochemical, mouse
Method: (§1) Cytosolic fractions containing individual SULT forms were prepared from transgenic S. typhimurium TA1538. Table S1 in the Supplementary Material provides a summary of the thirty SULTs used in the current study together with references describing the cloning of the respective S. typhimurium TA1538 strains. The expressed SULT forms are denoted with the prefixes h, m and r for human, mouse and rat enzymes, respectively. Bacteria were grown in Luria Broth medium containing ampicillin (100 µg/ml) by stirring for 8 h at 200 revolutions/min at 37 °C. The bacterial suspensions were centrifuged at 5,000 g for 10 min. The sediments were washed twice with 25 ml of 10 mM potassium phosphate buffer (pH 7.4)/50 mM potassium chloride (KCP buffer) and centrifuged again. The pellets were taken up in 800 µl KCP buffer and sonicated thrice for 15 s with 30 s pauses in between. The soluble fraction was attained by centrifuging for 1 h at 100,000 g. The supernatants (in the following termed cytosolic preparations) were frozen at −80 °C. The protein concentrations were determined according to a bicinchoninic acid (BCA) assay protocol. The SULT concentrations in the cytosolic preparations were estimated after electrophoretic separation and immunodetection using inclusion bodies of different SULT forms as standards (Teubner et al. [2007]). The preparation of SULT inclusion bodies and the immunodetection of SULTs is described in the Supplementary Material, which also contains a representative immunoblot of different amounts of rSult1a1standard and a cytosolic preparation of S. typhimurium expressing rSult1a1 (Fig. S1).
(§2) The reaction mixtures were prepared as described for HMF. In addition, they contained 10 mM adenosine as a nucleophilic scavenger. Following incubation for 20 min at 37 °C, sulfoconjugation reactions were stopped by adding 100 µl cold methanol containing 175 fmol of [^15N5]N ^6-MF-A as the internal standard, mixed and centrifuged at 15,000 g for 10 min. The clear supernatants were subjected to UPLC-MS/MS analyses. Incubations were performed as quadruplicates. At higher concentrations, FFA reacts spontaneously with adenosine at low, but detectable, levels. To correct for the SULT-independent adduct formation, mixtures with SULT-deficient cytosols were carried along simultaneously in duplicate. Controls were subtracted from the experimental samples.
(§3) The ribonucleoside adduct N ^6-((furan-2-yl)methyl)-adenosine (N ^6-MF-A) was analyzed by isotope-dilution UPLC-MS/MS with the same system described above using a HSS T3 column (1.8 µm, 2.1 × 100 mm, Waters). Samples of 8 µl were eluted with 10 mM ammonium bicarbonate buffer, pH 8.0 (A) and methanol (B) using an 6-min gradient from 98 % solvent A to 15 % solvent A at 0.35 ml/min flow rate (Yin et al. [2013]). The electrospray interface of the mass spectrometer operated in the positive ion mode. The fragmentations of N ^6-MF-A into the aglycone cation [N ^6-((furan-2-yl)methyl)-adenine-H]^+ (m/z = 348.1 → 216.1), the cleavage of the 2-methylfuranyl cation (m/z = 348.1 → 81.0) and the release of [N ^6-methyl-adenine-H]^+ (m/z = 348.1 → 148.0) were monitored together with the corresponding fragmentations of the isotope-labeled internal standard [^15N5]N ^6-MF-A for the formation of the aglycone (m/z = 353.1 → 221.1), the 2-methylfuran cation (m/z = 353.1 → 81.0) and ^15N5-labeled N ^6-methyl-adenine (m/z = 353.1 → 153.0). The N ^6-MF-A content of the incubation mixture was calculated from the ratio of peak areas resulting from the total ion current of all three MRM signals of the analyte. For the fragmentation of N ^6-MF-A ([^15N5]N ^6-MF-A), collision energies were 20, 25 and 35 eV for the transitions m/z = 348.1 → 216.1 (m/z = 353.1 → 221.1), m/z = 348.1 → 148.0 (m/z = 353.1 → 153.0) and m/z = 348.1 → 81.0 (m/z = 353.1 → 81.0), respectively. […]

mSult5a1 = test: as above; assay type: biochemical, mouse
Method: as §1, §2, §3

female B6C3F1 mice [1] = system: female B6C3F1 mice; set-up: method as in National Toxicology Program [2008]; settings: oral 188 mg HMF/kg for 104 weeks, ref National Toxicology Program [2008]; cited from earlier work
female B6C3F1 mice [2] = test: Two-year bioassay of HMF, oral administration; assay type: in vivo; settings: 70 kg human body weight, uptake 4–30 mg per person

OCc1ccco1 [FFA, furfuryl alcohol]
Rate of N6-MF-A formation (mSult2a3; 0.1 mM FFA): <18 fmol N ^6-MF-A/mg/min
Rate of N6-MF-A formation (mSult2a3; 1 mM FFA): <20 fmol N ^6-MF-A/mg/min
Rate of N6-MF-A formation (mSult2a3; 10 mM FFA): <44 fmol N ^6-MF-A/mg/min
Rate of N6-MF-A formation (mSult5a1; 0.1 mM FFA): <18 fmol N ^6-MF-A/mg/min
Rate of N6-MF-A formation (mSult5a1; 1 mM FFA): <20 fmol N ^6-MF-A/mg/min
Rate of N6-MF-A formation (mSult5a1; 10 mM FFA): <44 fmol N ^6-MF-A/mg/min

O=Cc1ccc(CO)o1 [HMF, 5-Hydroxymethylfurfural]
carcinogenic effect (female B6C3F1 mice [1]): increased incidences of hepatocellular adenomas
margin between carcinogenic dose (188 mg/kg) and human HMF uptake (female B6C3F1 mice [2]): 440- to 3,300 fold

Source: PMC4710668, “Bioactivation of food genotoxicants 5-hydroxymethylfurfural and furfuryl alcohol by sulfotransferases from human, mouse and rat: a comparative study” (Archives of Toxicology, 2014)
